The target in data set [1] is T1, L-lactate dehydrogenase A chain (Homo sapiens, UniProt P00338). Description: Binding affinity to LDHA (unknown origin) by SPR analysis.
The nature of data set [2]: Kinetic solubility of compound. The class given is physicochemical. As to conditions: read-out: Kinetic_solubility.
For data set [3], the target named is T1, L-lactate dehydrogenase A chain. Description: Inhibition of recombinant human LDHA using sodium pyruvate as substrate preincubated for 5 mins followed by diaphorase/resazurin addition and measured after 20 mins by fluorescence based assay. In general terms: Alamar Blue is a resazurin reagent that responds to reducing activity.
Data set [4] shares this target. Nature of the data set: Inhibition of LDHA in human A673 cells assessed as reduction in lactate production incubated for 2 hrs by fluorescence based assay. It is filed as cell-based.
The subject of a further data set is A673. Description: Cytotoxicity against human A673 cells assessed as reduction in cell viability incubated for 48 hrs by cell titer glo assay. The class given is functional, cell-based. As to conditions: A673, 48 h. (Cellular ATP, detected with luciferase, serves as a proxy for viable cell number.)
A further data set concerns MIA PaCa-2. Nature of the data set: Cytotoxicity against human MIA PaCa-2 cells assessed as reduction in cell viability incubated for 48 hrs by cell titer glo assay. The class given is functional, cell-based. As to conditions: MIA PaCa-2, 48 h.
A short description of data set [5]: Metabolic stability in rat microsomes assessed as half life. It is filed as ADME, Microsome.
The target of data set [6] is T1, L-lactate dehydrogenase A chain. Description: Inhibition of LDHA in human MIA PaCa2 cells assessed as reduction in lactate production incubated for 2 hrs by fluorescence based assay. The class given is cell-based, MIA PaCa-2.
A short description of data set [7]: Permeability of compound by PAMPA. It is filed as ADME. The note with it: read-out: permeability. (In general: In PAMPA a lipid-coated filter parts donor from acceptor wells.)

≈ marks a conversion by molar mass, not a printed value. Bounds are passed on as bounds.

The results in this text go back to ChEMBL document CHEMBL4814030, “Optimization of ether and aniline based inhibitors of lactate dehydrogenase” (Bioorg Med Chem Lett, 2021).

One may read the Kd as the constant that tells how readily two partners part at equilibrium. A low value points to a tighter complex. Usually IC50 stands for the concentration needed to halve the response being measured.

`NS(=O)(=O)c1ccc(Cc2c(-c3cccc(N4CCOCC4)c3)nn(-c3nc(C(=O)O)cs3)c2CC2CC2)cc1F`: the Kd in data set [1] was 0.00044 µM. The solubility kinetic in data set [2] was > 88 µg/mL. The concentration for half-maximal inhibition (IC50) amounted to 0.027 µM in data set [3]; 9.4 µM in data set [4]; 20.4 µM with A673; 18.7 µM in the data set with MIA PaCa-2; 23.4 µM in [6]. Also, the t1/2 in data set [5] was > 30 min. Besides, the Papp in data set [7] was determined as 1.6 ×10⁻⁶ cm/s.

For the molecule `NS(=O)(=O)c1ccc(Cc2c(-c3cccc(Nc4ccccc4)c3)nn(-c3nc(C(=O)O)cs3)c2CC2CC2)cc1`, in [1], binding was put at a Kd of 0.0015 µM. Also, the solubility kinetic in data set [2] was 49.3 µg/mL (≈ 84.2 µM). The IC50 stood at 0.314 µM in [3]; 3.1 µM in data set [4]; 34.5 µM in the data set on A673; 21.2 µM in the data set on MIA PaCa-2; 6.7 µM in data set [6]. In [5], the t1/2 stood at 6 min. The Papp in data set [7] stood at 4.4 ×10⁻⁶ cm/s.
